Reference: BindingDB's records for doi:10.1016/j.ejmech.2009.09.041 (Institute For Medical Research and Occupational Health, 2010)

Columns and labels:
Cholinesterase = Cholinesterase (Homo sapiens, UniProt P06276); test: Inhibition of human plasma BChE by Ellman's method
Acetylcholinesterase = Acetylcholinesterase (Homo sapiens, UniProt P22303); test: Inhibition of human recombinant AChE by Ellman's method
Sequence of Acetylcholinesterase (P22303 whole entry): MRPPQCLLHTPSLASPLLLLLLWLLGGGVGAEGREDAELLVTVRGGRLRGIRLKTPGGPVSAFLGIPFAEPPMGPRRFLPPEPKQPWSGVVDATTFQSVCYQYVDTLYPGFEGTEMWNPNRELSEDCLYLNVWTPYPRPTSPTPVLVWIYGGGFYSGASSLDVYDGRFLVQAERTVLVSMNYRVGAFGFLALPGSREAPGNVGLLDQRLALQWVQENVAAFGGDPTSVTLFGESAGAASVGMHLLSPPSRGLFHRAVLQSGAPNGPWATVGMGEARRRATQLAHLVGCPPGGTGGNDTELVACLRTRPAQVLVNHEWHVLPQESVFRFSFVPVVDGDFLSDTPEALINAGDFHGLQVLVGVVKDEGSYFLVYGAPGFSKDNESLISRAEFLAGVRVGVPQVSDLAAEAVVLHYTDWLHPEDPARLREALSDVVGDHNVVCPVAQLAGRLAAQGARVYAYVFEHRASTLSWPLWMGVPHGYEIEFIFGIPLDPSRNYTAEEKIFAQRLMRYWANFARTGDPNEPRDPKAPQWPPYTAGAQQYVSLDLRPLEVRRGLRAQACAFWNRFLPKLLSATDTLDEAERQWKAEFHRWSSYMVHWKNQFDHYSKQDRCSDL

Sequence of Cholinesterase (P06276 whole entry): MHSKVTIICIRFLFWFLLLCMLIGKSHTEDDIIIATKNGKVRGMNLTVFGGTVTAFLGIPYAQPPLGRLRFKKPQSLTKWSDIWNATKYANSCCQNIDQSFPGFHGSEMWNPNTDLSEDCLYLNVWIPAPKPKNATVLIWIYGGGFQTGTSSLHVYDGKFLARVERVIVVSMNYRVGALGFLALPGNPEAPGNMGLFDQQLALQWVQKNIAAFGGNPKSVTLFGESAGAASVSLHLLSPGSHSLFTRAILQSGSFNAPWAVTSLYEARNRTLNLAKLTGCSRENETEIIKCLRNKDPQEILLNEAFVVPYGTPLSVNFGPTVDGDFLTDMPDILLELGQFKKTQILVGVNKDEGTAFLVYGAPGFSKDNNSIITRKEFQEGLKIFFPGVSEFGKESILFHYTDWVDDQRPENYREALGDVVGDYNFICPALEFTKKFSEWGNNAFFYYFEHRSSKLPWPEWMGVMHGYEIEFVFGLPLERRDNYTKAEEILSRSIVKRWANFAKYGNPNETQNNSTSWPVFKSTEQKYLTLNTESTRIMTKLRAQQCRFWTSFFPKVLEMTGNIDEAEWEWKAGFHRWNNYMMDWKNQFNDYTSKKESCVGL

SMILES	Ki (Cholinesterase) [µM]	Ki (Acetylcholinesterase) [µM]
O=c1c(O)c(-c2cc(O)c(O)c(O)c2)oc2cc(O)cc(O)c12	71	37.8
O=c1c(O)c(-c2ccc(O)cc2)oc2cc(O)cc(O)c12	43.1	92.8
O=c1c(O)c(-c2ccc(O)c(O)c2)oc2cc(O)cc(O)c12 [2-(3,4-dihydroxyphenyl)-3,5,7-trihydroxy-chromone;hydrate]	68	38.3
O=c1c(O)c(-c2ccc(O)c(O)c2)oc2cc(O)ccc12 [2-(3,4-dihydroxyphenyl)-3,7-dihydroxy-chromen-4-one]	90	100
O=c1cc(-c2ccc(O)c(O)c2)oc2cc(O)cc(O)c12 [2-(3,4-dihydroxyphenyl)-5,7-dihydroxy-4H-chromen-4-one]	166	65.8
C[C@@H]1O[C@@H](OC[C@H]2O[C@@H](Oc3c(-c4ccc(O)c(O)c4)oc4cc(O)cc(O)c4c3=O)[C@H](O)[C@@H](O)[C@@H]2O)[C@H](O)[C@H](O)[C@H]1O [3-Rhamnoglucosylquercetin]	501	> 300
O=c1cc(-c2ccc(O)cc2)oc2cc(O)cc(O)c12 [Naringenin, 18]	37.4	122
O=c1c(O)c(-c2ccccc2)oc2cc(O)cc(O)c12 [norizalpinin]	6.9	85.6
